SMILES strings stand for the structures.

The DC50 is the concentration at which degradation of the target reaches its halfway point.

The target in assay [1] is BTK protein in human whole blood (Homo sapiens (Human), UniProt Q06187). The assay is described as follows: Btk protein in human whole blood MSD ELISA based assay (Btk degradation). The format is cell-based. Conditions: human whole blood from healthy donors, 6 hours at 37° C., half maximal degradation concentration; read-out: hWB BTK DC50. Put shortly: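 Fresh healthy-donor human whole blood incubated 6 h at 37 °C with 8-point 1:4 dilutions from 3 μM (final 0.2% DMSO), in duplicate. Remaining BTK in lysates measured by MSD sandwich ELISA. DC50 by non-linear regression; Dmax as maximal degradation versus DMSO.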
Sequence of BTK protein in human whole blood (Q06187 whole entry): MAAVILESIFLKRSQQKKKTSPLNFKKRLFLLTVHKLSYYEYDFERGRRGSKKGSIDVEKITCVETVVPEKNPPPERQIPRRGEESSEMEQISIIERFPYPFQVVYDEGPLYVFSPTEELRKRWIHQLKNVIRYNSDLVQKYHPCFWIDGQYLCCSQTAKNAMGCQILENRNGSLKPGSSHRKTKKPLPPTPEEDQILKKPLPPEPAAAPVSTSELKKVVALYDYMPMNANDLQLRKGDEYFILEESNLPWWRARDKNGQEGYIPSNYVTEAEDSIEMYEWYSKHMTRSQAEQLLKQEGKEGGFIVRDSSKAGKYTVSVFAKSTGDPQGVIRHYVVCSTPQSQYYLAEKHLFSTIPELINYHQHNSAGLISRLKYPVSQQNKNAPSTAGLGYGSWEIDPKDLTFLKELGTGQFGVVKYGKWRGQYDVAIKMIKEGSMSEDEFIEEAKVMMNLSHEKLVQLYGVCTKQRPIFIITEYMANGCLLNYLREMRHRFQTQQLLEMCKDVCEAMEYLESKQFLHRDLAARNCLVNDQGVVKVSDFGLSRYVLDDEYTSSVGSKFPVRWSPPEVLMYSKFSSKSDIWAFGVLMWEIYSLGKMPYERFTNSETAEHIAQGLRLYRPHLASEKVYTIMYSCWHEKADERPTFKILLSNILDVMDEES
A general note: An ELISA detects its analyte on a solid surface through an enzyme-linked reagent.

The target of another assay is BTK in mouse bone marrow (Mus musculus (Mouse), UniProt P35991). The experiment in a line: Mouse Bone Marrow Assay (MSD ELISA of BTK degradation in mouse bone marrow). The format is in vivo. The following applies: female C57BL/6J mice, single dose of Dose A, bone marrow collected after 24 hours, % remaining BTK in vehicle versus treated samples. The procedure: Female C57BL/6J mice (Jackson Laboratories) were used for this study. Compounds or vehicle/control were prepped with EtOH; PEG-400; Phosal 53 MCT (10:30:60, v/v). Four mice were tested per compound or vehicle/control. On Day 1, mice were administered a single dose of Dose A. On Day 2 (after 24 hours), tissue (bone marrow) was collected from one hind leg per mouse.
Sequence of BTK in mouse bone marrow (P35991 whole entry): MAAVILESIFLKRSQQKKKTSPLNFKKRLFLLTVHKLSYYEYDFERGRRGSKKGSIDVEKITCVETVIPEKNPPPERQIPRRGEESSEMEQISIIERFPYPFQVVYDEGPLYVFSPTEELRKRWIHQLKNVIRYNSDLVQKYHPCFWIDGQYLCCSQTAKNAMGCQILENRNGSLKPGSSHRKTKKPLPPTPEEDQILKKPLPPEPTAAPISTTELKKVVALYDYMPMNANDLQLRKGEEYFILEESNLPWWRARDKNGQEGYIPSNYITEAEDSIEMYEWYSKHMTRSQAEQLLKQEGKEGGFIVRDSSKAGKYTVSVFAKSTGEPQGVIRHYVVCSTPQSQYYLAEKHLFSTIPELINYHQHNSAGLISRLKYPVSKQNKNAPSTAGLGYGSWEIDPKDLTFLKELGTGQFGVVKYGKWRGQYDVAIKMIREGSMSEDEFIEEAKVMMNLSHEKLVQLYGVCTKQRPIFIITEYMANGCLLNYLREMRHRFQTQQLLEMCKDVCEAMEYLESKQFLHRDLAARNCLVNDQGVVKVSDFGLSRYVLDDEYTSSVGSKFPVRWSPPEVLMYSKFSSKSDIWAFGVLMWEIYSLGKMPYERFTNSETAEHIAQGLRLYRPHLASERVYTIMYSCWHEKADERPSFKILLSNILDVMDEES
An MSD (Meso Scale Discovery) ELISA (enzyme-linked immunosorbent assay) based assay was used to determine BTK degradation in mouse bone marrow. The following materials and equipment were used: 10% NP40 solution (nonionic polyoxyethylene surfactant, ThermoFisher, cat no. 28324); protease inhibitor mini tablet (Roche, cat no. 05 892 970 001); PhosphoSTOP™ tablet (Roche, cat no. 04 906 837 001); Pierce™ BCA Protein Assay Kit (Thermofisher, Cat No. 23225); Precellys® 2 mL lysing tube with 2.8 mm beads (VWR, cat no. 10032-756); Bertin Precellys® 24/Cryolys ® cooling system; 96-well MSD streptavidin pre-coated plates (MSD, cat no. L15SA-1); MSD Blocker A (MSD, cat no. R93BA-4); capture antibody, biotinylated BTK mAb (BD Biosciences, cat no. 624008; custom order); primary detection antibody, BTK RpAb (rabbit polyclonal antibody, CST, cat no. 8547S, D3H5 clone); secondary detection antibody, anti-Rabbit-Sulfo-Tag (MSD, cat no. R32AB-1); read Buffer, 4× (MSD, cat no. R92TC-1); recombinant BTK protein (Thermofisher, cat no. PR5442A); MSD Tris Wash Buffer (10×) (MSD, cat no. R61TX-1); PBS (phosphate-buffered saline); deionized water (diH2O); Lysis Buffer [0.2% NP40 in PBS+Protease Inhibitor tablet (1 tablet/10 mL)+PhosphoSTOP tablet (1 tablet/10 mL)]; 3% MSD Blocker A [MSD Blocker A+450 mL diH2O+50 mL]; and 10× MSD Tris Wash Buffer.
Lysis buffer [(PBS+0.2% NP40+PI (protease inhibitor)+PhosphoSTOP)]was prepared and put on ice until it was fully cold. Ice cold lysis buffer […] was added to each Precellys® tube containing beads and bone marrow sample. Sample tubes were transferred into Precellys® machine and homogenized using 5000 rpm -2×20 seconds. The sample lysates were centrifuged at 14,000 rpm for 20 minutes at 4° C. after homogenizing.
The protein concentration was determined using Pierce™ BCA Protein Assay Kit following manufacturer's recommended protocol. The protein normalized working solution was prepared, using 30 μg protein per sample lysate for assay.
A 300 ng/ml working stock solution of recombinant BTK protein in lysis buffer was prepared, and the sample was serially diluted at 3-fold dilution (10-point assay, highest concentration was 300 ng/mL and lowest concentration was 0.015 ng/mL)
MSD plate coating: Coating antibody (biotinylated-BTK mAb) stock solution was prepared at 1 μg/mL in PBS buffer. 50 μL/well capture antibody (Biotinylated BTK mAb) solution was added, and the plates were shaken gently at ambient temperature for two hours. The plates were washed 3 times with 1× MSD Tris Wash Buffer in a plate washer (300 μL/well), and the plates were blocked with 3% MSD Blocker A (150 μL/well). The plates were incubated for an additional 1-2 hours at ambient temperature with gentle shaking. The plates were washed 3 times with 1× MSD wash buffer using plate washer. Bone marrow lysates (30 μg) at a final volume of 50 μL/well were added into the plates. The serially diluted standard samples were added to the same plates at a final volume of 50 μL/well. The plates were incubated overnight at 4° C. with gentle shaking.
The plates were washed three times with 1× MSD wash buffer (prepared from 10× concentration buffer) using plate washer. Primary detection antibody at 50 μL/well was added (BTK RpAb; 1:1000 dilution in 1% MSD Blocker A). The plates were incubated for two hours at ambient temperature with gentle shaking. The plates were washed three times with 1× MSD wash buffer using plate washer. Anti-Rabbit-SULFO-TAG secondary antibodies (50 μl/well) were added, 1:500 diluted in 1% MSD Blocker A, and the plates were incubated for one to two hours at ambient temperature. […]

Regarding `Cc1cc(-c2cc(Nc3ccc(N4CCN(CCc5ccc(N6CCC(=O)NC6=O)cc5)CC4)cn3)ncn2)c(F)cc1[C@@H](C)NC(=O)c1nc(C(C)(C)C)no1` [Example 12, 3-tert-butyl-N-{(1R)-1-[4-(6-{[5-(4-{2-[4-(2,4-dioxo-1,3-diazinan-1-yl)phenyl]ethyl}piperazin-1-yl)pyridin-2-yl]amino}pyrimidin-4-yl)-5-fluoro-2-methylphenyl]ethyl}-1,2,4-oxadiazole-5-carboxamide], in assay [1], the 50% degradation concentration (DC50) was 2.27 nM. The “Mouse Bone Marrow (%), % remaining BTK” value on BTK in mouse bone marrow is 17%.
For `Cc1cc(-c2cc(Nc3ccc(N4CCN(CCc5ccc(N6CCC(=O)NC6=O)cc5)C[C@@H]4C(C)C)cn3)ncn2)ccc1[C@@H](C)NC(=O)c1nc(C(C)(C)C)no1` [Example 13, 3-tert-butyl-N-[(1R)-1-{4-[6-({5-[(2S)-4-{2-[4-(2,4-dioxo-1,3-diazinan-1-yl)phenyl]ethyl}-2-(propan-2-yl)piperazin-1-yl]pyridin-2-yl}amino)pyrimidin-4-yl]-2-methylphenyl}ethyl]-1,2,4-oxadiazole-5-carboxamide], in that order: 17.3 nM and 26%.
For `C[C@@H](NC(=O)c1nc(C(C)(C)C)no1)c1ccc(-c2cc(Nc3ccc(N4CCN(CCc5ccc(N6CCC(=O)NC6=O)cc5)C[C@@H]4C)cn3)ncn2)cc1Cl` [Example 14, 3-tert-butyl-N-[(1R)-1-{2-chloro-4-[6-({5-[(2S)-4-{2-[4-(2,4-dioxo-1,3-diazinan-1-yl)phenyl]ethyl}-2-methylpiperazin-1-yl]pyridin-2-yl}amino)pyrimidin-4-yl]phenyl}ethyl]-1,2,4-oxadiazole-5-carboxamide], in that order: 7.91 nM and 16%.
Consider `Cc1cc(-c2cc(Nc3ccc(N4CCN(CCc5ccc(N6CCC(=O)NC6=O)cc5)C[C@@H]4C)cc3)ncn2)ccc1[C@@H](C)NC(=O)c1nc(C(C)(C)C)no1` [Example 18], for which the DC50 in assay [1] amounted to 15.6 nM. Besides, the “Mouse Bone Marrow (%), % remaining BTK” value at BTK in mouse bone marrow is reported as 25%.
Regarding `Cc1cc(-c2cc(Nc3ccc(CCN4CCN(c5ccc(N6CCC(=O)NC6=O)cc5)CC4)cn3)ncn2)ccc1[C@@H](C)NC(=O)c1nc(C(C)(C)C)no1` [Example 19], in assay [1], the DC50 was found to be 3 nM. The “Mouse Bone Marrow (%), % remaining BTK” value on BTK in mouse bone marrow turned out to be 51%.

The values are drawn from US20240109877A1, “PYRIMIDINES FOR DEGRADING BRUTON'S TYROSINE KINASE” (AbbVie Inc., priority 2022, published 2024).
